Data set [1] deals with V79 cells. Description: Protection of V79 cells against the toxicity of H2O2 (neutral red technique). The format is cell-based. The note with it: for IC50: Cricetulus griseus, 1 hour contact with compound, then 30 μM H2O2 for one hour, cell number after 72 hours by neutral red, read-out: Result (concentration inducing 50% protection), IC50. As to the method:
The activity of the compounds was evaluated by their ability to protect V79 cells against the toxicity of H2O2, a technique conventionally used to evaluate the effectiveness of antioxidants or iron-chelating agents.
V79 cells were subcultured in DMEM (Dulbecco Modified Essential Medium) medium supplemented with 10% of foetal calf serum, streptomycin, penicillin and glutamine at 37° C. under an atmosphere of 95% air+5% CO2.
The cells were subsequently seeded at a density of 5×10^3/ml in 96-well plates.
After 24 hours, the cells were rinsed and then incubated with the test compounds at different concentrations.
After a contact time of 1 hour, 30 μM of H2O2 were added and incubated at 37° C. for a further one hour.
The cells were subsequently rinsed and then again brought into contact with the supplemented medium described above.
After 72 hours, the number of cells was evaluated in each well by using the neutral red technique.
The protective effect is assessed by the IC50, which measures the concentration which induces 50% protection against cytotoxicity in comparison with the wells treated only with H2O2.

Data set [2] can be described thus: Solubility limit noted in the V79 protection test. The format is physicochemical. The note with it: beyond 1 mM.

Structures can show the parent of a compound that is named as a salt.

This is an account of results in patent US6482855B2, “Diamine alkylene diacetic or triacetic acid derivatives, preparation method, use in cosmetic and pharmaceutical compositions and compositions containing them” (L'Oreal S.A., priority 1997, dated 2002).

Take `COc1cc(CN(CCN(CC(=O)O)Cc2cc(OC)c(OC)c(OC)c2)CC(=O)O)cc(OC)c1OC` [Comparative 1, the dihydrochloride of N,N′-bis(3,4,5-trimethoxybenzyl)ethylenediamine-N,N′-diacetic acid]: in data set [1] (compound at 10 mM, 30 μM H2O2), the “protection against H2O2 cytotoxicity” value is 25% protection only at 10 mM.

With `COc1cc(CN(CCN(CC(=O)OCOC(C)=O)Cc2cc(OC)c(OC)c(OC)c2)CC(=O)OCOC(C)=O)cc(OC)c1OC` [Example 1, bis(acetoxymethyl) [N,N′-bis(3,4,5-trimethoxybenzyl)]-ethylenediamine-N,N′-diacetate], the IC50 in data set [1] amounted to 10 µM.

For the compound `COC(=O)CN(CCN(CC(=O)OC)Cc1cc(OC)c(OC)c(OC)c1)Cc1cc(OC)c(OC)c(OC)c1` [Comparative 2], the IC50 in data set [1] was > 1000 µM. Also, in data set [2], the “solubility of compound in the test” value is “insoluble beyond this point)”.
